Measurements published in PMC3569853 (European journal of medicinal chemistry, 2012).
Where two headings read alike, the source gives them in different places.

Tests used:
[1] = biological target: δ-opioid receptor (hDOR-CHO cells) (Homo sapiens, UniProt P41143); experiment: Opioid receptor binding assay, δ; conditions: for δ~ μ: selectivity ratio Ki δ / Ki μ
[2] = biological target: T1, μ-opioid receptor (hMOR-CHO cells) (Homo sapiens, UniProt P35372); experiment: biochemical; format: binding
[3] = biological target: κ-opioid receptor (hKOR-CHO cells) (Homo sapiens, UniProt P41145); experiment: Opioid receptor binding assay, κ; conditions: for Ki: [3H]-U69,593, CHO hKOR cells, full binding assay, ±SD; for κ/μ: selectivity ratio Ki κ / Ki μ
Sequence of κ-opioid receptor (hKOR-CHO cells) (P41145 whole entry): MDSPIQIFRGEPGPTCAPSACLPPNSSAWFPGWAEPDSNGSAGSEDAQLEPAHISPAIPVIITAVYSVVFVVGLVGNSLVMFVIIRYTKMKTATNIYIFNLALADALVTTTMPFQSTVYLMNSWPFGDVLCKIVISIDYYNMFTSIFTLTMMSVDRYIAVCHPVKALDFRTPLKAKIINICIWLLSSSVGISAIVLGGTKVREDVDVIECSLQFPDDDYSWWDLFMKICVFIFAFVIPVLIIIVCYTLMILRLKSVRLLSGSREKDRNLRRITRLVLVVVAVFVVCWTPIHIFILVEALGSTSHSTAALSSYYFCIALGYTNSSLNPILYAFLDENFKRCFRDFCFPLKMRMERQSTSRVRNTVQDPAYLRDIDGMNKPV

[4] = biological target: T1, μ-opioid receptor (hMOR-CHO cells); experiment: biochemical
[5] = biological target: T1, μ-opioid receptor (hMOR-CHO cells); experiment: Initial binding screen, estimated Ki; conditions: read-out: estimated Ki (μ)
[6] = read-out: Ki δ, [3H]-DADLE, CHO hDOR cells, full binding assay, ±SD

Sequence of δ-opioid receptor (hDOR-CHO cells) (P41143 whole entry): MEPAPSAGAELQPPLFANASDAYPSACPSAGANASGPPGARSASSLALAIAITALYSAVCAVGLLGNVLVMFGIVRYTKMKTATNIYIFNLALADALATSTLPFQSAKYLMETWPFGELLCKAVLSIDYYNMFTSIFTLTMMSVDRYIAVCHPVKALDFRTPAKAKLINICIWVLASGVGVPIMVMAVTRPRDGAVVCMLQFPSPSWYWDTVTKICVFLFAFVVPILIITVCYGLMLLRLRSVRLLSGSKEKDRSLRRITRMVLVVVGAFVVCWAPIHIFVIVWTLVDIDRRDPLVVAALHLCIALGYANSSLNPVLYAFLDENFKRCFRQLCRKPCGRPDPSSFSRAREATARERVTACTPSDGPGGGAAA
T1 sequence (P35372 whole entry): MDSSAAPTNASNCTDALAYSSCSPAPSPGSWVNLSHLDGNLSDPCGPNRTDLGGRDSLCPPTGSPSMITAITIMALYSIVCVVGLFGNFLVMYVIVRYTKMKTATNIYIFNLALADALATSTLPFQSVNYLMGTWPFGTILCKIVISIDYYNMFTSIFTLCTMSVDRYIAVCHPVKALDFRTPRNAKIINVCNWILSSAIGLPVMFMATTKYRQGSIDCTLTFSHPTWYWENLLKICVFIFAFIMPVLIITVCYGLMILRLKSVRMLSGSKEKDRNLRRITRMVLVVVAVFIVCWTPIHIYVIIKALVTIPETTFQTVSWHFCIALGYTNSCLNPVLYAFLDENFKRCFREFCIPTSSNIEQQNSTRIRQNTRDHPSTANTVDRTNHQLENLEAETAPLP

| Molecule | Ki [1, 6] [µM] | δ~ μ [1] | Ki ([2]; read-out: Ki μ) [µM] | Ki ([3]; read-out: Ki κ) [µM] | Ke μ [4] [nM] | κ/μ [3] | potency estimated from few doses [5] [µM] | Ki [1] [µM] | Ki ([2]; Ki μ) [µM] | Ki ([3]; Ki κ) [µM] | Kb [4] [µM] |
| --- | --- | --- | --- | --- | --- | --- | --- | --- | --- | --- | --- |
| 13-methyl-2,3,4,9,10,10a-hexahydro-1H-1,4a-(epiminoethano)-phenanthrene-8,9α-diol [Compound 10] | 3.22 ± 0.332 | 107 | 0.03 ± 0.006 | 2.02 ± 0.169 | 706 ± 135 |  |  |  |  |  |  |
| 13-phenethyl-2,3,4,9,10,10a-hexahydro-1H-1,4a-(epiminoethano)-phenanthrene-6,9α-diol [Compound 22] | > 10 | 139 | 0.072 ± 0.01 | 1.81 ± 0.095 |  | 25 |  |  |  |  |  |
| 13-phenethyl-2,3,4,9,10,10a-hexahydro-1H-1,4a-(epiminoethano)-phenanthrene-8,9α-diol [Compound 12] | > 10 | 714 | 0.014 ± 0.002 | 0.525 ± 0.039 | 6 ± 1 | 38 |  |  |  |  |  |
| 13-phenethyl-2,3,4,9,10,10a-hexahydro-1H-1,4a-(epiminoethano)phenanthrene-8,9β-diol [Compound 13] | > 10 | 56 |  | 0.923 ± 0.032 |  | 5 |  |  |  |  |  |
| O=C1CC2C3CCCC2(CCN3CCc2ccccc2)c2cccc(O)c21 (stereo not drawn) [Compound 9, 8-hydroxy-13-phenethyl-3,4,10,10a-tetrahydro-1H-1,4a-(epiminoethano)phenanthren-9(2H)-one] |  |  |  |  |  |  | 0.297 |  |  |  |  |
| CN1CCC23CCCC1C2C=Cc1c(O)cccc13 (stereo not drawn) [Compound 14, 13-methyl-2,3,4,10a-tetrahydro-1H-1,4a-(epiminoethano)phenanthren-8-ol] |  | 149 |  |  |  | 58 |  | > 10 | 0.067 ± 0.007 | 3.89 ± 0.441 |  |
| Oc1cccc2c1C=CC1C3CCCC21CCN3CCc1ccccc1 (stereo not drawn) [Compound 16, 13-phenethyl-2,3,4,10a-tetrahydro-1H-1,4a-(epiminoethano)phenanthren-8-ol] |  | 97 |  |  |  | 19 |  | 1.84 ± 0.212 | 0.019 ± 0.004 | 0.369 ± 0.026 | 0.0017 ± 0.00026 |
| Oc1cccc2c1CCC1C3CCCC21CCN3CCc1ccccc1 (stereo not drawn) [Compound 17, 13-phenethyl-2,3,4,9,10,10a-hexahydro-1H-1,4a-(epiminoethano)phenanthrene-8-ol] |  | 135 |  |  |  | 42 |  | 2.83 ± 0.223 | 0.021 ± 0.005 | 0.873 ± 0.101 | 0.007 ± 0.0018 |
| O=C1CC2C3CCCC2(CCN3CCc2ccccc2)c2cc(O)ccc21 (stereo not drawn) [Compound 18, 6-hydroxy-13-phenethyl-3,4,10,10a-tetrahydro-1H-1,4a-(epiminoethano)phenanthren-9(2H)-one] |  |  |  |  |  |  | 0.08 |  |  |  |  |
| CN1CCC23CCCC1C2C=Cc1ccc(O)cc13 (stereo not drawn) [Compound 20, 13-methyl-2,3,4,10a-tetrahydro-1H-1,4a-(epiminoethano)phenanthren-6-ol] |  | 175 |  |  |  | 71 | 0.067 | > 10 | 0.057 ± 0.006 | 4.04 ± 0.363 |  |
| Oc1ccc2c(c1)C13CCCC(C1C=C2)N(CCc1ccccc1)CC3 (stereo not drawn) [Compound 23, 13-phenethyl-2,3,4,10a-tetrahydro-1H-1,4a-(epiminoethano)phenanthren-6-ol] |  | 49 |  |  |  | 20 |  | 0.127 ± 0.031 | 0.0026 ± 0.00035 | 0.051 ± 0.004 | 0.00034 ± 7e-05 |
| Oc1ccc2c(c1)C13CCCC(C1CC2)N(CCc1ccccc1)CC3 (stereo not drawn) [Compound 24, 13-phenethyl-2,3,4,9,10,10a-hexahydro-1H-1,4a-(epiminoethano)phenanthren-6-ol] |  | 81 |  |  |  | 27 |  | 0.186 ± 0.025 | 0.0023 ± 0.0002 | 0.061 ± 0.006 | 0.00071 ± 0.00013 |
